The results in this text go back to US20180362485A1, “N-HYDROXYFORMAMIDE COMPOUNDS AND COMPOSITIONS COMPRISING THEM FOR USE AS BMP l, TLL1 AND/OR TLL2 INHIBITORS” (GlaxoSmithKline Intellectual Property (No. 2) Limited, priority 2015, published 2018).

Structures can show the parent of a compound that is named as a salt.

In one assay the test system is Generation of Procollagen I C-Terminal Propeptide (PICP). Kind of assay: Cell-based inhibition assay of generation of procollagen I C-terminal propeptide (PICP), PICP ELISA. The settings on record: Cardiac fibroblast, human cardiac fibroblasts, 24 to 48 hr, read-out: pIC50, PICP cellular inhibition assay (converted). Here is the method: (§1) An adaptation of the collagen deposition assay described by Chen, C. Z. C., et al., British Journal of Pharmacology, 2009, 158, 1196-1209 is used to examine effect of compounds on procollagen I processing and collagen deposition. In the adapted assay, human cardiac fibroblasts are utilized. Processing of procollagen I is determined by a PICP ELISA assay and deposition of mature collagen is determined by immunostaining.
(§2) Human cardiac fibroblasts are cultured and maintained until passage 6 in FGM-3 media (Lonza, #CC-3132) in a 37° C. humidified incubator with 5% CO2. They are then seeded in 96-well black wall, clear bottom plates at 10,000 to 15,000 cells per well in eagle's minimum essential media (EMEM, ATCC #30-2003) containing 10% fetal bovine serum (FBS, Life Technologies #10082147), 1% Glutamax (Life Technologies #35050061) and 1% Penicillin and Streptomycin (Life Technologies #15070063). These cultures are placed in 37° C. incubator. The next day, media is removed by aspiration and cells are rinsed with phosphate buffered saline. Crowding media (also called ficoll media) is prepared by adding 112.5 mg/ml of ficoll70 and 75 mg/ml ficoll400 (GE healthcare #17-0310-10 and 17-0300-10, respectively), 100 μM ascorbic acid, 1% Glutamax and 1% Penicillin and Streptomycin to EMEM media. Test compounds (dissolved in DMSO) are diluted into crowding media and then added to the cells. Final concentration of DMSO in crowding media is less than 0.3%. Cells are treated for 24 to 48 hr in a 37° C. incubator. At the end of the treatment period, cell media are collected. The level of PICP in the media is determined by a PICP ELISA assay (Quidel #8003) following the manufacturer's protocol. Potencies of test compounds are calculated by fitting PICP levels, relative to untreated controls, to log (inhibitor) vs. response equation using Graphpad Prism software 5.0 and expressed as pIC50.
A general note: An ELISA detects its analyte on a solid surface through an enzyme-linked reagent.
Regarding `CCCCC[C@@H](C(=O)NCNC(=O)c1ccc(-c2ccc(C(=O)OCC)cc2)o1)[C@@H](CC)N(O)C=O` [Example 100, ethyl 4-(5-((((R)-2-((R)-1-(N-hydroxyformamido)propyl)heptanamido)methyl)carbamoyl)furan-2-yl)benzoate], the IC50 is < 398 nM. `CCCCC[C@@H](C(=O)NCNC(=O)c1ccc(-c2ccc(C(=O)OCCCC)cc2)o1)[C@@H](CC)N(O)C=O` [Example 101, butyl 4-(5-((((R)-2-((R)-1-(N-hydroxyformamido)propyl)heptanamido)methyl)carbamoyl)furan-2-yl)benzoate]: the IC50 is < 398 nM. Still for that read-out and setting: to `CCCCC[C@@H](C(=O)NCNC(=O)c1ccc(-c2ccc(C(=O)OCCN(C)C)cc2)o1)[C@@H](CC)N(O)C=O` [Example 104, 2-(dimethylamino) ethyl 4-(5-((((R)-2-((R)-1-(N-hydroxyformamido)propyl)heptanamido)methyl)carbamoyl)furan-2-yl)benzoate] belongs < 398 nM; to `CCCCC[C@@H](C(=O)NCNC(=O)c1ccc(-c2ccc(C(=O)N[C@@H](CC(=O)OC(C)(C)C)C(=O)OC(C)(C)C)c(OCC)c2)o1)[C@@H](CC)N(O)C=O` [Example 112, (S)-di-tert-butyl 2-(2-ethoxy-4-(5-((((R)-2-((R)-1-(N-hydroxyformamido)propyl)heptanamido)methyl)carbamoyl)furan-2-yl)benzamido) succinate], < 398 nM; to `CCCCC[C@@H](C(=O)NCNC(=O)c1ccc(-c2ccc(C(=O)N[C@@H](CC(=O)O)C(=O)OCC)c(OCC)c2)o1)[C@@H](CC)N(O)C=O` [Example 113, (S)-4-ethoxy-3-(2-ethoxy-4-(5-((((R)-2-((R)-1-(N-hydroxyformamido)propyl)heptanamido)methyl)carbamoyl)furan-2-yl)benzamido)-4-oxobutanoic acid], < 398 nM. Take `CCCCC[C@@H](C(=O)NCNC(=O)c1ccc(-c2ccc(C(=O)N[C@@H](CC(=O)O)C(=O)OC(C)(C)C)c(OCC)c2)o1)[C@@H](CC)N(O)C=O` [Example 114, (S)-4-(tert-butoxy)-3-(2-ethoxy-4-(5-((((R)-2-((R)-1-(N-hydroxyformamido)propyl)heptanamido)methyl)carbamoyl)furan-2-yl)benzamido)-4-oxobutanoic acid]: the IC50 was < 398 nM.

As for `CCCCC[C@@H](C(=O)NCNC(=O)c1ccc(-c2cc(OCC)cc(P(=O)(OCOC(C)=O)OCOC(C)=O)c2)o1)[C@@H](CC)N(O)C=O` [Example 115, (((3-ethoxy-5-(5-((((R)-2-((R)-1-(N-hydroxyformamido)propyl)heptanamido)methyl)carbamoyl)furan-2-yl)phenyl)phosphoryl)bis(oxy))bis (methylene) diacetate], the IC50 is < 398 nM.

On to `CCCCC[C@@H](C(=O)NCNC(=O)c1ccc(-c2ccc(C(=O)N[C@@H](CC(=O)O)C(=O)OCOC(=O)c3ccccc3)c(OCC)c2)o1)[C@@H](CC)N(O)C=O` [Example 116, (S)-4-((benzoyloxy)methoxy)-3-(2-ethoxy-4-(5-((((R)-2-((R)-1-(N-hydroxyformamido)propyl)heptanamido)methyl)carbamoyl)furan-2-yl)benzamido)-4-oxobutanoic acid], for which the IC50 is < 398 nM. For the molecule `CCCCC[C@@H](C(=O)NCNC(=O)c1ccc(-c2ccc(C(=O)N[C@@H](CC(=O)OC)C(=O)OC)c(OCC(=O)OC)c2)o1)[C@@H](CC)N(O)C=O` [Example 142, (S)-dimethyl 2-(4-(5-((((R)-2-((R)-1-(N-hydroxyformamido)propyl)heptanamido)methyl)carbamoyl)furan-2-yl)-2-(2-methoxy-2-oxoethoxy)benzamido)succinate], the IC50 was < 398 nM.

In the case of `CCCCC[C@@H](C(=O)NCNC(=O)c1ccc(-c2ccc(C(=O)N[C@@H](CC(=O)OCC)C(=O)OCC)c(OCC)c2)o1)[C@@H](CC)N(O)C=O` [Example 143, (S)-diethyl 2-(2-ethoxy-4-(5-((((R)-2-((R)-1-(N-hydroxyformamido)propyl)heptanamido)methyl)carbamoyl)furan-2-yl)benzamido)succinate], the IC50 is < 398 nM. The same measure, in the same setting: the result for `CCCCC[C@@H](C(=O)NCNC(=O)c1ccc(-c2cc(OCC)cc(P(=O)(O)OCOC(=O)OC(C)C)c2)o1)[C@@H](CC)N(O)C=O` [Example 302, (((3-ethoxy-5-(5-((((R)-2-((R)-1-(N-hydroxyformamido)propyl)heptanamido)methyl)carbamoyl)furan-2-yl)phenyl) (hydroxy)phosphoryl)oxy)methyl isopropyl carbonate] reads < 398 nM; that for `CCCCC[C@@H](C(=O)NCNC(=O)c1ccc(-c2cc(OCC)cc(P(=O)(O)Oc3ccccc3)c2)o1)[C@@H](CC)N(O)C=O` [Example 400, Phenyl Hydrogen (3-ethoxy-5-(5-((((R)-2-((R)-1-(N-hydroxyformamido)propyl)heptanamido)methyl)carbamoyl)furan-2-yl)phenyl)phosphonate, Ammonia Salt], < 398 nM.

The subject of a further assay is deposition of mature collagen. The assay can be described thus: Cell-based inhibition assay of mature collagen deposition (immunostaining). The settings on record: Cardiac fibroblast; human cardiac fibroblasts, immunostaining of mature collagen I; read-out: pIC50, mature collagen cellular inhibition assay (converted). As to the method:
as §1, §2
For some compounds, deposition of mature collagen is measured by immunostaining in addition to PICP levels. At the end of the treatment period, cells on culture plate are fixed with 100% methanol (prechilled to −20° C.) for 10 min. Then the cells are immunostained with mouse anti-mature collagen I antibody (1:500 dilution, Sigma#C2456), anti-mouse secondary antibody Alexa647 (1:500 dilution, Invitrogen#A21236) and Hoechst (for nuclei, 2 μg/ml, Invitrogen#H3596). Fluorescent image acquisition is done using the Operetta High Content Imaging system (Perkin Elmer). For each image field, the intensity of mature collagen staining is normalized with the number of nuclei. Normalized collagen levels are used to calculate the potency of test compounds with Graphpad Prism software, as described above.
Take `CCCCC[C@@H](C(=O)NCNC(=O)c1ccc(-c2ccc(C(=O)N[C@@H](CC(=O)O)C(=O)O)c(OCC)c2)o1)[C@@H](CC)N(O)C=O` [WO2015/104684 Example 74, (S)-2-(2-ethoxy-4-(5-((((R)-2-((R)-1-(N-hydroxyformamido)propyl)heptanamido)methyl)carbamoyl)furan-2-yl)benzamido)succinic acid]: the IC50 is < 1000 nM. The same measure, in the same setting: to `CCCCC[C@@H](C(=O)NCNC(=O)c1ccc(-c2cc(OCC)cc(P(=O)(O)O)c2)o1)[C@@H](CC)N(O)C=O` [WO2015/104684 Example 96, (3-ethoxy-5-(5-((((R)-2-((R)-1-(N-hydroxyformamido)propyl)heptanamido)methyl)carbamoyl)furan-2-yl)phenyl)phosphonic acid] belongs < 1000 nM. As to `CCCCC[C@@H](C(=O)NCNC(=O)c1ccc(-c2ccc(C(=O)N[C@@H](CC(=O)O)C(=O)O)c(OCC(=O)O)c2)o1)[C@@H](CC)N(O)C=O` [WO2015/104684 Example 126, (S)-2-(2-(carboxymethoxy)-4-(5-((((R)-2-((R)-1-(N-hydroxyformamido)propyl)heptanamido)methyl)carbamoyl)furan-2-yl)benzamido)succinic acid], the IC50 is < 1000 nM. In the case of `CCCCC[C@@H](C(=O)NCNC(=O)c1ccc(-c2ccc(C(=O)NCP(=O)(O)O)c(OCC)c2)o1)[C@@H](CC)N(O)C=O` [WO2015/104684 Example 139, ((2-ethoxy-4-(5-((((R)-2-((R)-1-(N-hydroxyformamido)propyl)heptanamido)methyl)carbamoyl)furan-2-yl)benzamido)methyl)phosphonic acid], the IC50 is < 1000 nM.
